# What was measured:
# NF-κB [1] = assay: 293/NFkB-luc reporter cell assay (TNF-α induced luciferase expression); format: cell-based; conditions: 293/NFkB-luc, 293 cells, pNF-κB-luc reporter, 2 h pretreatment, 20 ng/ml TNF-α 18 h
# Method: (§1) Two reporter cell assays were used to determine the ability of the compound of Example 10 to inhibit NF-κB driven transcription. The first assay was a 293-cell based assay with a stably integrated pNF-κB-luc reporter plasmid containing 3 NF-κB promoter elements. The second assay was a 293-cell based assay with a stably integrated pTRH1-NF-κB-dscGFP reporter containing 4 NF-κB promoter elements. Cells were treated with 0, 0.2, 1, 10, 20 and 40 μM of the compound of Example 10 for 2 hours then were induced with 20 ng/ml TNF-α for 18 hours. Following the induction, luminescence or fluorescence was quantified using a Beckman-Coulter 2300 plate reader. […] These values represent the median value generated from three independent experiments. As a control, 0.5% DMSO treated and untreated cells were compared to verify that the compound of Example 10 had no effect on the expression of luciferase or in the readout of the assay. There was a slight decrease in the output from the assay in the DMSO treated population although it was not statistically significant. As a result of the controls, the decrease in activity in the drug treated samples was compared to the DMSO control sample.
# NF-κB [2] = assay: NF-κB/293/GFP reporter cell assay (TNF-α induced GFP expression); format: cell-based; conditions: Homo sapiens, HEK293, 293 cells, pTRH1-NF-κB-dscGFP reporter, 2 h pretreatment, 20 ng/ml TNF-α 18 h; read-out: NF-KB/293/GFP EC50
# Method: as §1
# p65 (RelA) = target: T1, p65 (RelA) (Homo sapiens, UniProt Q04206); assay: TransAM NF-κB family DNA binding ELISA, p65; format: biochemical; conditions: binding to NF-κB consensus oligonucleotide
# T1 construct: purchased Active Motif
# Method: (§2) The binding activity of NF-κB heterodimer or homodimer subunits from activated nuclear extracts or purified recombinant NF-κB proteins exposed to the drug compounds was evaluated using the TransAM NF-κB Family binding ELISA (Active Motif). 3-5 μg of nuclear extracts from TNFα activated Hela or Raji cells (Active Motif) or 20 ng of purified recombinant proteins (p65 and p50 from Active Motif, p52 from Santa Cruz) were incubated for 1 hour at room temperature with 20 μL drug compounds diluted in Complete Lysis buffer without DTT. Treated samples were then transferred to 30 μL Complete Binding Buffer (with DTT) in microplate wells pre-coated with the NF-κB consensus oligonucleotide. […] The plate was incubated for 1 hour at room temperature with gentle shaking and then washed 3 times with 200 μL 1× Wash Buffer. NF-κB p65, p50, p52, RelB, or c-Rel subunits bound to the plate were detected with 100 μL of the primary antibody (diluted 1:1000 in 1× Antibody Buffer) specific for that subunit. The plate was incubated for 1 hour at room temperature and then washed 3 times with 200 μL 1× Wash Buffer. Next, 100 μL of a HRP conjugated goat anti-rabbit antibody (diluted 1:1,000 in 1× Antibody Buffer) was added to each well. The plate was incubated for 1 hour at room temperature and then washed 4 times with 200 μL 1× Wash Buffer. 100 μL of room temperature Developing Solution was added to each well. The reaction was allowed to develop for 2-10 minutes until a medium dark blue color developed (depending on the subunit activity in the lot of extract or lot of recombinant protein used) and then the reaction was stopped with 100 μL Stop Solution yielding a yellow color. Absorbance was recorded using a Becton-Dickinson DTX 880 Multimode Detector at 450 nm with a reference wavelength subtracted at 620 nm. FIGS. 2, 3 and 4 illustrate the effect of Example 10 on inhibiting RelA, RelB and c-Rel binding to NF-κB sites.
# c-Rel = target: T2, c-Rel (Homo sapiens, UniProt Q04864); assay: TransAM NF-κB family DNA binding ELISA, c-Rel; format: biochemical
# T2 sequence (Q04864 2-619 limits assumed): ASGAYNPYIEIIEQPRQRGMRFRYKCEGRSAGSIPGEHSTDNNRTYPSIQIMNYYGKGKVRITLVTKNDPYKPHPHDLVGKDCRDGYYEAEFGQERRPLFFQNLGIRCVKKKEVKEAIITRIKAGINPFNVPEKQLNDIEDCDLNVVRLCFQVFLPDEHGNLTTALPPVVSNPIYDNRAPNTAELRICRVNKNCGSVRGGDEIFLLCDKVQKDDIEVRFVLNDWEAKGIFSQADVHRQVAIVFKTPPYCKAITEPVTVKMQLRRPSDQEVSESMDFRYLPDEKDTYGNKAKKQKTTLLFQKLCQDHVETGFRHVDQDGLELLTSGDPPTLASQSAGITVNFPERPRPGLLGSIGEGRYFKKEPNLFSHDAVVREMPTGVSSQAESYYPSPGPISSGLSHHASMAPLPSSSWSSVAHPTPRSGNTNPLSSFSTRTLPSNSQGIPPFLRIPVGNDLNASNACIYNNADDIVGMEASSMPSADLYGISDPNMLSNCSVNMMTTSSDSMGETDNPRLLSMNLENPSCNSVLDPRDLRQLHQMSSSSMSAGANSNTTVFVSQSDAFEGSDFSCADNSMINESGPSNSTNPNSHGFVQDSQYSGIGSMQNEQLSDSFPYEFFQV
# Method: as §2
# RelB = target: T3, RelB (Homo sapiens, UniProt Q01201); assay: TransAM NF-κB family DNA binding ELISA, RelB; format: biochemical
# T3 sequence (Q01201 1-579): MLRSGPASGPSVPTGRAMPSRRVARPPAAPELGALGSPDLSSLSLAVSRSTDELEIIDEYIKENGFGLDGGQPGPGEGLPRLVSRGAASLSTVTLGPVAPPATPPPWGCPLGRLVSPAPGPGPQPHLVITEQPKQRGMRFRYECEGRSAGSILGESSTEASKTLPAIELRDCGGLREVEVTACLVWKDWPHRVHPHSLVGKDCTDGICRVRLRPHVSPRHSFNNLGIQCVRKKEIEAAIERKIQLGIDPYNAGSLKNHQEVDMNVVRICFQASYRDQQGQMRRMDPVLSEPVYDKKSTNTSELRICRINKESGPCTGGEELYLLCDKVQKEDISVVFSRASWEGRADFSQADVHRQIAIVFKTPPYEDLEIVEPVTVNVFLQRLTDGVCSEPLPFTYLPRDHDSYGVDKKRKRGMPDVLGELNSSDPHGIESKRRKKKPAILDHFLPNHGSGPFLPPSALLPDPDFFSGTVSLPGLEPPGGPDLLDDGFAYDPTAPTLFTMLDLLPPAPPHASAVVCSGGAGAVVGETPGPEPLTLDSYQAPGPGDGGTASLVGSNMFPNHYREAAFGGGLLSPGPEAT
# Method: as §2
# T1 sequence (Q04206 whole entry): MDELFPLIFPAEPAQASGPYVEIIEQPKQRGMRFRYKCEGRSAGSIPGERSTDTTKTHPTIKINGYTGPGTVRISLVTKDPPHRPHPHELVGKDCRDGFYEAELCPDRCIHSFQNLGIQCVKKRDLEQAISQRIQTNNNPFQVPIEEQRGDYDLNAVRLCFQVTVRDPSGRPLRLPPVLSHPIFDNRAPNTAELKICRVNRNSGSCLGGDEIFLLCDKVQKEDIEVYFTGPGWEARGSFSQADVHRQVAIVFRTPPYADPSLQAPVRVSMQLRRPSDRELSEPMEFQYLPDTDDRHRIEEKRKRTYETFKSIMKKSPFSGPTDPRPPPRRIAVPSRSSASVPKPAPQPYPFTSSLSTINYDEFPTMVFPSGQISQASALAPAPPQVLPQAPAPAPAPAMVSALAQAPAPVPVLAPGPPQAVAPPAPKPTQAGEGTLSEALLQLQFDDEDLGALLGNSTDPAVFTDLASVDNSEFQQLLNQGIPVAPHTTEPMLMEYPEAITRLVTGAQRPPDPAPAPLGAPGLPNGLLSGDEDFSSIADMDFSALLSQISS
EC50 (NF-κB [1]) [µM],EC50 (NF-κB [2]) [µM],IC50 (p65 (RelA)) [µM],inhibition at 5 µM (c-Rel) [%],inhibition at 5 µM (RelB) [%],SMILES
21,4.7,488,2,6,"O=C(NC1=CC(=O)C2OC2C1O)c1cc2ccccc2cc1O (racemic) [Example 7, (±)-3-hydroxy-N-(2-hydroxy-5-oxo-7-oxabicyclo[4.1.0]hept-3-en-3-yl)-2-naphthamide]"
37,14,19.4,7,13,"O=C(NC1=CC(=O)C2OC2C1O)c1cccc(Cl)c1O (racemic) [Example 6, (±)-3-chloro-2-hydroxy-N-(2-hydroxy-5-oxo-7-oxabicyclo[4.1.0]hept-3-en-3-yl)benzamide]"

# From patent publication US20120046357A1, “Benzamide and Napthamide Derivatives Inhibiting Nuclear Factor-Kappa (B) - (NK-kB)” (Profectus Biosciences, Inc., priority 2009, published 2012)
